Laboratory results from publication PMC4657912, “Purification and Characterization of a Novel NAD(P)^+-Farnesol Dehydrogenase from Polygonum minus Leaves” (PLoS ONE, 2015).

Experiments:
[1] = test system: T1, P. minus farnesol dehydrogenase; NAD(P)+-dependent farnesol dehydrogenase; test: NADH formation at […] nm, Lineweaver-Burk; type: biochemical, Persicaria minor; conditions: 100 mM glycine-NaOH pH 9.5, 35 C, read-out: K m value
T1 construct: native, purified from leaves; gene not cloned

[2] = test system: T1, P. minus farnesol dehydrogenase; NAD(P)+-dependent farnesol dehydrogenase; test: NADPH formation at […] nm, Lineweaver-Burk; type: biochemical, Persicaria minor; conditions: 1.0 mM trans,trans-farnesol (standard assay), 100 mM glycine-NaOH pH 9.5, 35 C; substrate range stated 0.5-1.5 mM, extrapolated; read-out: K m value
[3] = 1.0 mM NAD+ (standard assay), oxidation

C=C(C)[C@@H]1CC=C(CO)CC1 [(S)-Perillyl alcohol]
Km [1, 3]: 770 µM

C=C(C)C1CC=C(C)C(O)C1 (stereo not shown) [Carveol]
Km [1, 3]: 710 µM

OC/C=C/c1ccccc1 [Cinnamyl alcohol]
Km [1, 3]: 1040 µM

CC(C)=CCC/C(C)=C\CC/C(C)=C\CO [Cis, cis-farnesol]
Km [1, 3]: 420 µM

CC(C)=CCC/C(C)=C/CC/C(C)=C\CO [Cis, trans-farnesol]
Km [1, 3]: 330 µM

CC(C)=CCC/C(C)=C/CO [Geraniol, (trans)-3,7-dimethyl-2,6-octadien-1-ol]
Km ([1]; 1.0 mM NAD+ (standard assay), oxidation, substrate range 0.5-1.5 mM, extrapolated): 12500 µM

NC(=O)c1ccc[n+]([C@@H]2O[C@H](COP(=O)(O)OP(=O)(O)OC[C@H]3O[C@@H](n4cnc5c(N)ncnc54)[C@H](OP(=O)(O)O)[C@@H]3O)[C@@H](O)[C@H]2O)c1 [NADP^+]
Km [2]: 40 mM

NC(=O)c1ccc[n+]([C@@H]2O[C@H](COP(=O)(O)OP(=O)(O)OC[C@H]3O[C@@H](n4cnc5c(N)ncnc54)[C@H](O)[C@@H]3O)[C@@H](O)[C@H]2O)c1 [NAD^+]
Km ([1]; 1.0 mM trans,trans-farnesol (standard assay)): 740 µM

CC(C)=CCC/C(C)=C/CC/C(C)=C/CO [Trans, trans-farnesol, trans,trans-3,7,11-trimethyl-2,6,10-dodecatrien-1-ol]
Km [1, 3]: 170 µM

C=CC(C)(O)CCC=C(C)CCC=C(C)C (stereo not shown) [nerolidol]
Km [1, 3]: 1000 µM
